Experimental data as given in patent US7232912B2, “Indazole compounds, pharmaceutical compositions, and methods for mediating or inhibiting cell proliferation” (Agouron Pharmaceuticals, Inc., priority 2000, dated 2007).
pIC50, pKi: −log10 of the molar value.

Experiments:
CDK4/cyclin D3 = CDK4/cyclin D3 (Homo sapiens, UniProt P11802); experiment: Inhibition of CDK4/Cyclin D Retinoblastoma Kinase Activity; type: biochemical; conditions: apparent Ki
Protocol: (§1) Cyclin-dependent kinase activity was measured by quantifying the enzyme-catalyzed, time-dependent incorporation of radioactive phosphate from [^32P]ATP or [^33P]ATP into a protein substrate. Unless noted otherwise, assays were performed in 96-well plates in a total volume of 50 μL, in the presence of 10 mM HEPES (N-[2-hydroxyethyl]piperazine-N′-[2-ethanesulfonic acid]) (pH 7.4), 10 mM MgCl2, 25 μM adenosine triphosphate (ATP), 1 mg/mL ovalbumin, 5 μg/mL leupeptin, 1 mM dithiothreitol, 10 mM beta-glycerophosphate, 0.1 mM sodium vanadate, 1 mM sodium fluoride, 2.5 mM ethylene glycol-bis(β-aminoethyl ethKer)-N,N,N′N′-tetraacetic acid (EGTA), 2% (v/v) dimethylsulfoxide, and 0.03–0.4 μCi [^32/33P]ATP per reaction. Reactions were initiated with appropriate enzyme, incubated at 30° C., and terminated after 20 minutes by the addition of ethylenediaminetetraacetic acid (EDTA) to 250 mM. The phosphorylated substrate was then captured on a nitrocellulose or phosphocellulose membrane using a 96-well filtration manifold, and unincorporated radioactivity was removed by repeated washing with 0.85% phosphoric acid. Radioactivity was quantified by exposing the dried membranes to a phosphorimager.
(§2) Apparent Ki values were measured by assaying enzyme activity in the presence of different inhibitor compound concentrations and subtracting the background radioactivity measured in the absence of enzyme. Inhibition data were fit to an equation for competitive inhibition using Kaleidagraph (Synergy Software), or were fit to an equation for competitive tight-binding inhibition using the software KineTic (BioKin, Ltd.).
Inhibition of CDK4/Cyclin D Retinoblastoma Kinase Activity
A complex of human CDK4 and cyclin D3, or a complex of human CDK4 and genetically truncated (1–264) cyclin D3, was purified using traditional biochemical chromatographic techniques from insect cells that had been co-infected with the corresponding baculovirus expression vectors (see e.g., Meijer and Kim, “Chemical Inhibitors of Cyclin-Dependent Kinases,” Methods in Enzymol,. vol. 283 (1997), pp. 113–128.). The enzyme complex (5 or 50 nM) was assayed with 0.3–0.5 μg of purified recombinant retinoblastoma protein fragment (Rb) as a substrate. The engineered Rb fragment (residues 386–928 of the native retinoblastoma protein; 62.3 kDa) contains the majority of the phosphorylation sites found in the native 106-kDa protein, as well as a tag of six histidine residues for ease of purification. Phosphorylated Rb substrate was captured by microfiltration on a nitrocellulose membrane and quantified using a phosphorimager as described above. For measurement of tight-binding inhibitors, the enzyme complex concentration was lowered to 5 nM, and the assay duration was extended to 60 minutes, during which the time-dependence of product formation was linear.

CDK2/cyclin A = target: T1, CDK2/cyclin A (Homo sapiens, UniProt P24941); experiment: Inhibition of CDK2/Cyclin A Retinoblastoma Kinase Activity; type: biochemical; conditions: apparent Ki
T1 construct: made in house; host or cells: CDK2: insect cells (baculovirus); cyclin A: E. coli
Protocol: as §1, §2
Inhibition of CDK2/Cyclin A Retinoblastoma Kinase Activity
CDK2 was purified using published methodology (Rosenblatt et al., “Purification and Crystallization of Human Cyclin-dependent Kinase 2,” J. Mol. Biol., vol. 230, 1993, pp. 1317–1319) from insect cells that had been infected with a baculovirus expression vector. […] A complex of CDK2 and proteolyzed cyclin A was prepared and purified by gel filtration. The substrate for this assay was the same Rb substrate fragment used for the CDK4 assays, and the methodology of the CDK2/cyclin A and the CDK4/cyclin D3 assays was essentially the same, except that CDK2 was present at 150 nM or 5 nM. Ki values were measured as described above.

FGFR1 tyrosine kinase = target: T2, FGFR1 tyrosine kinase (Homo sapiens, UniProt P11362, C488A/C584S/L457V); experiment: Inhibition of phosphorylated FGF receptor tyrosine kinase activity; type: biochemical; conditions: for inhibition at 1 µM: read-out: FGF % Inhib. at 1 μM
T2 construct: the cytosolic domain of FGFR1 tyrosine kinase (amino acids 456–766); made in house; host or cells: Sf9 insect cells (baculovirus)
Protocol: Inhibition of Phosphorylated FGF Receptor and LCK Tyrosine Kinase Activity
Cloning, expression and purification of the cytosolic domain of FGFR1 tyrosine kinase (amino acids 456–766) containing three amino acid substitutions (L457V, C488A, and C584S) were conducted as previously described (Mohammadi, M., Schlessinger, J., & Hubbard, S. R. (1996) Cell 86, 577–587). This domain was expressed in Sf9 insect cells using a baculovirus expression vector, and protein was purified using conventional techniques. The LCK tyrosine kinase was expressed in insect cells as an N-terminal deletion starting from amino acid 223 to the end of the protein at amino acid 509. The N-terminus of the protein also had two amino acid substitutions, P223M and C 224D. Kinases were purified using conventional chromatographic methods.
Tyrosine kinase activity was measured using a coupled, continuous spectrophotometric assay, in which production of phosphorylated poly(Glu, Tyr; 4:1) substrate and ADP is coupled to the pyruvate kinase-catalyzed transfer of a phosphate from phosphoenolpyruvate to ADP, with generation of pyruvate and regeneration of ATP. Pyruvate production is in turn coupled to the lactate dehydrogenase-catalyzed reduction of pyruvate to form lactate, with concomitant conversion of NADH to NAD+. Loss of NADH is monitored by measuring absorbance at 340 nm (see e.g., Technikova-Dobrova et al., “Spectrophotometric determination of functional characteristics of protein kinases with coupled enzymatic assay,” FEBS Letters, vol. 292 (1991), pp. 69–72). Enzyme activity was measured in the presence of 200 mM HEPES (pH 7.5), 2 mM phosphoenolpyruvate, 0.3 mM NADH, 20 mM MgCl2, 100 μM ATP, 5 mM DTT, 5.1 or 25 mM poly (Glu,Tyr) 4:1 for P-FGF or P-LCK assays, respectively, and 15 units/mL each of pyruvate kinase and lactate dehydrogenase. Phosphorylated FGF receptor kinase was present at 100 nM and phosphorylated LCK kinase was present at 50 nM. Assays were performed under initial rate conditions at 37° C., and rates were corrected for any background rate measured in the absence of enzyme. Percent inhibition was calculated relative to control enzyme assayed in the presence of 2% (v/v) DMSO.

HCT 116 cell line = experiment: Inhibition of Cell Growth (MTT tetrazolium salt assay); type: cell-based; conditions: Homo sapiens, HCT 116, MTT; for pIC50: 50% inhibition of growth, read-out: HCT 116 IC50; for IC90: read-out: HCT 116 IC90
Protocol: Inhibition of Cell Growth: Assessment of Cytotoxicity
Inhibition of cell growth was measured using the tetrazolium salt assay, which is based on the ability of viable cells to reduce 3-(4,5-dimethylthiazol-2-yl)-2,5-[2H]-diphenyltetrazolium bromide (MTT) to formazan (Mossman, Journal of Immunological Methods, vol. 65 (1983), pp. 55–58). The water-insoluble purple formazan product was then detected spectrophotometrically. The HCT 116 cell line was grown in 96-well plates. Cells were plated in the appropriate medium at a volume of 135 μl/well in McCoy's 5A Medium. Plates were incubated for four hours before addition of inhibitor compounds. Different concentrations of inhibitor compounds were added in 0.5% (v/v) dimethylsulfoxide (15 μL/well), and cells were incubated at 37° C. (5% CO2) for four to six days (depending on cell type). At the end of the incubation, MTT was added to a final concentration of 0.2 mg/mL, and cells were incubated for 4 hours more at 37° C. After centrifugation of the plates and removal of medium, the absorbance of the formazan (solubilized in dimethylsulfoxide) was measured at 540 nm. The concentration of inhibitor compound causing 50% inhibition of growth was determined from the linear portion of a semi-log plot of inhibitor concentration versus percentage inhibition. All results were compared to control cells treated only with 0.5% (v/v) dimethylsulfoxide.

Sequence of CDK4/cyclin D3 (P11802 2-303 limits assumed): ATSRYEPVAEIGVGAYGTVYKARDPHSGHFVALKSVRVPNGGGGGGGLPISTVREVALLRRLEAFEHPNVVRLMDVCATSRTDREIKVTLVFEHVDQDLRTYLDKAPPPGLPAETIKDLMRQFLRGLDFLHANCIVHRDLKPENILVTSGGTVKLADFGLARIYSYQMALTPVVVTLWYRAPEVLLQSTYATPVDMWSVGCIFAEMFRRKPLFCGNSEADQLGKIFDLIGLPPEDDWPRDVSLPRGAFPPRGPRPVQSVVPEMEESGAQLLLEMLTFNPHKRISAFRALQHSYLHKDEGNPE
Sequence of CDK4/cyclin D3 (P30281 1-264 limits assumed, further chain): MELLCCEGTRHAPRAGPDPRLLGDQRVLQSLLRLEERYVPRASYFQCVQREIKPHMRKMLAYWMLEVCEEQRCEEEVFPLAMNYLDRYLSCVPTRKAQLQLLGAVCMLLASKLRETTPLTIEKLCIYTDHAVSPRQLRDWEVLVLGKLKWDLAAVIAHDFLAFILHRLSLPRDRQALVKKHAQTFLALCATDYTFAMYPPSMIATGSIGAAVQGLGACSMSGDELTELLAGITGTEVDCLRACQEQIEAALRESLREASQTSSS
T2 sequence (P11362 456-766 L457V/C488A/C584S): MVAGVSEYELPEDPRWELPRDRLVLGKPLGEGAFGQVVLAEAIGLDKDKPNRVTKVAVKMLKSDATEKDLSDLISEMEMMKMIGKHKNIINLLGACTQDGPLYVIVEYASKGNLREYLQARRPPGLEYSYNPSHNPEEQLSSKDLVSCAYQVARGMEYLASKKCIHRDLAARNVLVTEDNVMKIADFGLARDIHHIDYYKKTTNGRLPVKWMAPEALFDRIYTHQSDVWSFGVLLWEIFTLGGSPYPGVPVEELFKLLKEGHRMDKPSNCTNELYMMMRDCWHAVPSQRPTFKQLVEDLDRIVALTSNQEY

| pKi (CDK4/cyclin D3) | pKi (CDK2/cyclin A) | inhibition at 1 µM (FGFR1 tyrosine kinase) | pIC50 (HCT 116 cell line) | IC90 (HCT 116 cell line) | pKi (FGFR1 tyrosine kinase) | SMILES |
| --- | --- | --- | --- | --- | --- | --- |
| 7.72 | 9.00 | 26.9% | 6.70 | 580 nM |  | c1ccc2c(-c3ccc4[nH]nc(-c5nc6c(CCN7CCCC7)cccc6[nH]5)c4c3)cncc2c1 [Example 34, 4-{3-[4-(2-Pyrrolidin-1-yl-ethyl)-1H-benzoimidazol-2-yl]-1H-indazol-5-yl]-isoquinoline] |
| 7.82 | 7.54 | 59.6% | 5.72 | 5000 nM |  | Cc1ccncc1-c1ccc2[nH]nc(/C=C/c3ccccc3)c2c1 [Example 43, 5-(4Methyl-pyridin-3-yl)-3-(E)styryl-1H-indazole] |
| 8.55 | 9.00 | 44.1% | 6.41 | 1300 nM |  | Cc1c(-c2ccc3[nH]nc(-c4nc5ccccc5[nH]4)c3c2)cncc1-c1c[nH]cn1 [Example 65, 3-(1H-Benzoimidazol-2-yl)-5-[5-(1H-imidazol-4-yl)-4-methyl-pyridin-3-yl]-1H-indazole] |
| 7.72 | 7.54 | 56.2% | 5.30 | 5000 nM |  | Fc1cccc2cncc(-c3ccc4[nH]nc(/C=C/c5ccccc5)c4c3)c12 [Example 44] |
| 8.33 | 8.96 | 12.6% | 6.80 | 600 nM |  | Cc1c(-c2ccncc2)cncc1-c1ccc2[nH]nc(-c3nc4c(CN(C)C)cccc4[nH]3)c2c1 [Example 68, Dimethyl-{2-[5-(4-methyl-[3,4′]bipyridinyl-5-yl)-1H-indazol-3-yl]-1H-benzoimidazol-4-ylmethyl}-amine] |
| 6.60 | 7.14 | 89.6% | 5.74 | 5000 nM |  | Oc1cc(F)c(-c2ccc3[nH]nc(-c4nc5ccccc5[nH]4)c3c2)c(F)c1 [Example 50, 4-[-3-(1H-Benzoimidazol-2-yl)-1H-indazol-5-yl]-3,5-difluoro-phenol] |
| 8.49 | 9.00 | 40.5% | 6.89 | 370 nM |  | CC(CO)CNCc1cccc2[nH]c(-c3n[nH]c4ccc(-c5cncc6ccccc56)cc34)nc12 (stereo not shown) [Example 35, 3-{[2-(5-Isoquinolin-4-yl-1H-indazol-3-yl)-1H-benzoimidazol-4-ylmethyl]-amino}-2-methyl-propan-1-ol] |

Continued, molecule first:

| SMILES | pKi (CDK4/cyclin D3) | pKi (CDK2/cyclin A) | inhibition at 1 µM (FGFR1 tyrosine kinase) | pIC50 (HCT 116 cell line) | IC90 (HCT 116 cell line) | pKi (FGFR1 tyrosine kinase) |
| --- | --- | --- | --- | --- | --- | --- |
| c1ccc2c(-c3ccc4[nH]nc(-c5nc6ccccc6[nH]5)c4c3)cncc2c1 [Example 25, 4-[3-(1H-Benzoimidazol-2-yl)-1H-indazol-5-yl]-isoquinoline] | 8.00 | 9.00 |  | 6.48 | 1100 nM | 6.36 |
| c1ccc2c(-c3ccc4[nH]nc(-c5nc6c(CN7CCCC7)cccc6[nH]5)c4c3)cncc2c1 [Example 33, 4-[3-(4Pyrrolidin-1-ylmethyl-1H-benzoimidazol-2-yl)-1H-indazol-5-yl]-isoquinoline] | 8.96 | 9.00 | 51.6% | 7.26 | 160 nM |  |
| COc1c(O)cccc1-c1ccc2[nH]nc(-c3nc4ccccc4[nH]3)c2c1 [Example 47, 3-[3-(1H-benzoimidazol-2-yl)-1H-indazol-5-yl]-2-methoxy-phenol] | 7.03 | 7.00 | 81.1% | 5.68 | 5000 nM |  |
| Clc1cccc2[nH]c(-c3n[nH]c4ccc(-c5cncc6ccccc56)cc34)nc12 [Example 19, 4-[3-(4-Chloro-1H-benzoimidazol-2-yl)-1H-indazol-5-yl]-isoquinoline] | 7.27 | 9.00 | 31.3% | 6.11 | 1600 nM |  |
| OCCc1cccc2[nH]c(-c3n[nH]c4ccc(-c5cncc6ccccc56)cc34)nc12 [Example 30] | 7.96 | 9.00 | 52.4% | 6.74 | 620 nM |  |
| CNCc1cccc2[nH]c(-c3n[nH]c4ccc(-c5cncc6ccccc56)cc34)nc12 [Example 32, [2-(5-Isoquinolin-4-yl-1H-indazol-3-yl)-1H-benzoimidazol-4-yl-methyl]-methyl-amine] | 9.39 | 9.60 | 29.7% | 7.07 | 230 nM |  |
| CN1CCN(c2ccc3[nH]c(-c4n[nH]c5ccc(-c6cncc7ccccc67)cc45)nc3c2)CC1 [Example 20, 4-{3-[5-(4-Methyl-piperazin-1-yl)-1H-benzoimidazol-2-yl]-1H-indazol-5-yl}-isoquinoline] | 8.68 | 9.03 | 96.9% | 7.15 | 400 nM |  |
| C(=C\c1n[nH]c2ccc(-c3ccc4ccncc4c3)cc12)/c1ccccc1 [Example 24, 7-[3-((E)Styryl)-1H-indazol-5-yl]-isoquinoline] | 6.16 | 5.96 | 45.4% |  |  |  |
